Test results reported in patent publication US11484567B2, “Use of immune suppressive domains as medicaments” (iSD Immunotech ApS, priority 2013, dated 2022).

Columns and labels:
BMDCs = experiment: Cytokine release (type I IFN bioassay) from LPS-treated BMDCs pretreated with peptide; format: cell-based
STING [1] = experiment: Pulldown of HA-tagged STING C-terminal domain with biotinylated INF ISD peptide and streptavidin coated beads, immunoblot; format: binding
STING [2] = target: T1, STING (Homo sapiens, UniProt Q86WV6); experiment: as above; format: binding
T1 construct: the C-terminal domain of STING was expressed with a HA-tag in HEK293 cells; expressed in transfected cells; host or cells: HEK293
T1 sequence (Q86WV6 162-379): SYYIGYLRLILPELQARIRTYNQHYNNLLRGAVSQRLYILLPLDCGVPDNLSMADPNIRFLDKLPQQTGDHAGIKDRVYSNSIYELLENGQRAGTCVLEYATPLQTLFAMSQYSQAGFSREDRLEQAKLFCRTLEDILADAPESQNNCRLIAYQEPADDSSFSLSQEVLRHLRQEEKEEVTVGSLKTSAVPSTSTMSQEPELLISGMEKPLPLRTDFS

GLFGAIAGFIENGWEGCGGEKEKEK [INF ISD peptide]
amounts of cytokines released by cells treated with LPS (FIG. 9) (BMDCs; BMDCs treated with LPS for 16 hours, pretreated with peptide, supernatants analyzed for type I IFN using bioassay): significantly lower amounts of cytokines
release of cytokines including pro-inflammatory cytokines such as TNFalpha and IL-6 (BMDCs; pretreatment of cells with peptide, LPS (Example 3)): decrease in the release of cytokines
pulldown of wt STING (STING [1]): readily pulled down
pulldown of STING deletion mutant DN5 (162-N) (STING [2]): readily pulled down
